Laboratory results published in BigSolDB 2.1.

NC(=O)CC[C@H](N)C(=O)O
solubility (mole fraction)
Details	283.15 K	288.15 K	293.15 K	298.15 K	303.15 K	308.15 K	313.15 K	318.15 K	323.15 K
in 2-butanone	0.00015	0.00017	0.0002	0.000237	0.000271	0.000301	0.000338	0.000373	0.00041
in acetonitrile	3.44e-05	6.77e-05	0.000104	0.000138	0.000164	0.000192	0.000225	0.000254	0.000283
in ethanol	0.000273	0.000304	0.000337	0.000372	0.000408	0.000447	0.000494	0.000522	0.000584
in ethyl acetate	2.94e-05	5.21e-05	0.000138	0.000218	0.000293	0.000362	0.000452	0.00054	0.000653
in isobutanol	5.11e-05	0.000112	0.000163	0.000254	0.000348	0.000442	0.000556	0.000662	0.000798
in methanol	9.5e-05	0.000101	0.000114	0.000134	0.000164	0.000205	0.00025	0.000286	0.000347
in n-butanol	0.000184	0.00023	0.000291	0.00035	0.0004	0.000458	0.000522	0.000574	0.000635
in n-hexane	0.000129	0.000196	0.000263	0.000346	0.000425	0.000494	0.000554	0.000621	0.000681
in n-pentanol	8.57e-05	0.000109	0.000137	0.000163	0.000245	0.000335	0.000448	0.000556	0.000654
in n-propanol	8.13e-05	0.000115	0.000156	0.000189	0.000227	0.000266	0.000321	0.000375	0.000434
in sec-butanol	5.51e-05	0.000106	0.00017	0.000231	0.000281	0.000353	0.00042	0.000501	0.000593
in water	0.00356	0.00409	0.00471	0.00533	0.00595	0.00682	0.00811	0.0097	0.0121
